The values that follow are results of earlier work, collected in US8758740B2, “Composition for promoting ketone body production” (Earthus, Inc, priority 2007, dated 2014).

Like-named read-outs stand apart in the source and are kept apart here.

The conditions of series [1]: dog.
[2] abbreviates: single oral bolus, 10 g of the cyclic trimer.

For `C[C@@H]1CC(=O)O[C@H](C)CC(=O)O[C@H](C)CC(=O)O1` [cyclic trimer], the “blood ketone body level” value in series [1] (meat with 23.5 g cyclic trimer four times over 9 hours, after the third administration (at 6 hours)) is reported as 30 times of the normal level. The “blood hydroxybutyric acid level” value in series [1] (meat with 23.5 g cyclic trimer four times over 9 hours, within 30 minutes from the first administration) is recorded as “about 50 times of the normal level”. In series [1] (setting [2]), the “highest blood hydroxybutyric acid level” value was “more than 5 times of the normal level” and the “time of the highest blood hydroxybutyric acid level from the administration” value was 90 min. Further, the “blood level of ketone bodies” value (80 minutes after oral administration of diet containing 11 wt % of the trimer) is reported as 1.8 times of the normal level. For the same molecule, the “blood level of ketone bodies” value (150 minutes after oral administration of diet containing 11 wt % of the trimer) is 2.4 times of the normal level.
